# Test results published in patent US11987586B1 (TAKEDA PHARMACEUTICAL COMPANY LIMITED, priority 2022, dated 2024).
# Molecular target: T1, human OX2 receptor (Homo sapiens, UniProt O43614)
# T1 construct: expressed in transfected cells
# T1 sequence (O43614 1-444): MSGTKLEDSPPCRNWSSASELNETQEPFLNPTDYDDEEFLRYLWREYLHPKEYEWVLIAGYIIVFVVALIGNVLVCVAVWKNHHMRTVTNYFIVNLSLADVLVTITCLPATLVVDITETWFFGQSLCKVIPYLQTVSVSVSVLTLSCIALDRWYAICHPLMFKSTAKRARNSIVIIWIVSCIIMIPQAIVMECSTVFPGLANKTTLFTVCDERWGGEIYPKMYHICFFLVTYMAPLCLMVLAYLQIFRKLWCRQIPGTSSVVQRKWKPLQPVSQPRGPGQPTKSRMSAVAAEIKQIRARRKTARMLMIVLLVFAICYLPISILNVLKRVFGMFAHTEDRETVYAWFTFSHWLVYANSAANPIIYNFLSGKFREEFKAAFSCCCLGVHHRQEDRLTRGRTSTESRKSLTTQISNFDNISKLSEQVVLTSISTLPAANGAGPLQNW
# Test: Measurement of orexin type 2 receptor agonist activity (calcium fluorescence, Fluo-4, FDSS)
# Type: cell-based
# Settings: 3 uM test compound; CHO cells expressing human OX2 receptor; DMSO = 0%, 10 nM orexin A (human) = 100%
# Procedure, shortened: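 Agonist activity (%) was normalised to the response to 10 nM final human orexin A (100%) and to the DMSO vehicle (0%). The response was measured as the Fluo-4 calcium signal, read kinetically over 1 min 40 s after compound addition to Fluo-4/probenecid-loaded stable CHO-K1 clones expressing human OX2 (aa 1-444).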
row,SMILES,"OX2R agonist activity (3 uM, %) [%]"
1,"CCS(=O)(=O)N[C@@H]1Cn2c(cn(-c3noc4cc(Cl)c(F)c(-c5c(F)cccc5F)c34)c2=O)C1(F)F [Example 78, N-{(6R)-2-[6-chloro-4-(2,6-difluorophenyl)-5-fluoro-1,2-benzoxazol-3-yl]-7,7-difluoro-3-oxo-2,5,6,7-tetrahydro-3H-pyrrolo[1,2-c]imidazol-6-yl}ethanesulfonamide]",104
2,"CCS(=O)(=O)N[C@@H]1CN2C(=O)N(c3noc4cc(Cl)c(F)c(-c5c(F)cccc5F)c34)C[C@@H]2C1(F)F [Example 79, N-{(6R,7aR)-2-[6-chloro-4-(2,6-difluorophenyl)-5-fluoro-1,2-benzoxazol-3-yl]-7,7-difluoro-3-oxohexahydro-1H-pyrrolo[1,2-c]imidazol-6-yl}ethanesulfonamide]",99
3,"CCS(=O)(=O)N[C@H]1C[C@H]2CN(c3noc4cccc(-c5sccc5C)c34)C(=O)N2C1 [Example 83, N-{(6S,7aS)-2-[4-(3-methylthiophen-2-yl)-1,2-benzoxazol-3-yl]-3-oxohexahydro-1H-pyrrolo[1,2-c]imidazol-6-yl}ethanesulfonamide]",84
4,"CCS(=O)(=O)N[C@H]1Cc2cn(-c3noc4cc(C(F)(F)F)cc(-c5c(F)cccc5F)c34)c(=O)n2C1 [Example 84, N-{(6S)-2-[4-(2,6-difluorophenyl)-6-(trifluoromethyl)-1,2-benzoxazol-3-yl]-3-oxo-2,5,6,7-tetrahydro-3H-pyrrolo[1,2-c]imidazol-6-yl}ethanesulfonamide]",92
5,"CCS(=O)(=O)N[C@H]1Cc2cn(-c3c(C)nn4cccc(-c5c(F)cccc5F)c34)c(=O)n2C1 [Example 85, N-{(6S)-2-[4-(2,6-difluorophenyl)-2-methylpyrazolo[1,5-a]pyridin-3-yl]-3-oxo-2,5,6,7-tetrahydro-3H-pyrrolo[1,2-c]imidazol-6-yl}ethanesulfonamide]",95
6,"CCS(=O)(=O)N[C@H]1Cc2c(C)n(-c3noc4cc(C(F)(F)F)cc(-c5c(F)cccc5F)c34)c(=O)n2C1 [Example 86, N-{(6S)-2-[4-(2,6-difluorophenyl)-6-(trifluoromethyl)-1,2-benzoxazol-3-yl]-1-methyl-3-oxo-2,5,6,7-tetrahydro-3H-pyrrolo[1,2-c]imidazol-6-yl}ethanesulfonamide]",103
7,"CS(=O)(=O)N[C@@H]1CN2C(=O)N(c3noc4cc(Cl)cc(-c5c(F)cccc5F)c34)C[C@@H]2C1(F)F [Example 87, N-{(6R,7aR)-2-[6-chloro-4-(2,6-difluorophenyl)-1,2-benzoxazol-3-yl]-7,7-difluoro-3-oxohexahydro-1H-pyrrolo[1,2-c]imidazol-6-yl}methanesulfonamide]",91
8,"Cn1nc2cccc(-c3c(F)cccc3F)c2c1-n1cc2n(c1=O)C[C@@H](NS(C)(=O)=O)C2 [Example 88, N-{(6S)-2-[4-(2,6-difluorophenyl)-2-methyl-2H-indazol-3-yl]-3-oxo-2,5,6,7-tetrahydro-3H-pyrrolo[1,2-c]imidazol-6-yl}methanesulfonamide]",79
9,"O=C1N(c2noc3cccc(-c4c(F)cccc4F)c23)C[C@H]2N1C[C@@H](NS(=O)(=O)C1CC1)C2(F)F [Example 89, N-{(6R,7aR)-2-[4-(2,6-difluorophenyl)-1,2-benzoxazol-3-yl]-7,7-difluoro-3-oxohexahydro-1H-pyrrolo[1,2-c]imidazol-6-yl}cyclopropanesulfonamide]",95

# Next, values leading:
row,"OX2R agonist activity (3 uM, %) [%]",SMILES
1,107,"CS(=O)(=O)N[C@@H]1Cn2c(cn(-c3noc4cc(Cl)cc(-c5c(F)cc(F)cc5F)c34)c2=O)C1(F)F [Example 90, N-{(6R)-2-[6-chloro-4-(2,4,6-trifluorophenyl)-1,2-benzoxazol-3-yl]-7,7-difluoro-3-oxo-2,5,6,7-tetrahydro-3H-pyrrolo[1,2-c]imidazol-6-yl}methanesulfonamide]"
2,103,"CCS(=O)(=O)N[C@@H]1Cn2c(cn(-c3noc4cccc(-c5c(F)cc(F)cc5F)c34)c2=O)C1(F)F [Example 91, N-{(6R)-7,7-difluoro-3-oxo-2-[4-(2,4,6-trifluorophenyl)-1,2-benzoxazol-3-yl]-2,5,6,7-tetrahydro-3H-pyrrolo[1,2-c]imidazol-6-yl}ethanesulfonamide]"
3,98,"CCS(=O)(=O)N[C@@H]1Cn2c(cn(-c3noc4ccc(F)c(-c5c(F)cc(F)cc5F)c34)c2=O)C1(F)F [Example 92, N-{(6R)-7,7-Difluoro-2-[5-fluoro-4-(2,4,6-trifluorophenyl)-1,2-benzoxazol-3-yl]-3-oxo-2,5,6,7-tetrahydro-3H-pyrrolo[1,2-c]imidazol-6-yl}ethanesulfonamide]"
4,99,"CCS(=O)(=O)N[C@@H]1CN2C(=O)N(c3noc4cc(Cl)c(F)c(-c5c(F)cc(F)cc5F)c34)C[C@@H]2C1(F)F [Example 93, N-{(6R,7aR)-2-[6-chloro-5-fluoro-4-(2,4,6-trifluorophenyl)-1,2-benzoxazol-3-yl]-7,7-difluoro-3-oxohexahydro-1H-pyrrolo[1,2-c]imidazol-6-yl}ethanesulfonamide]"
5,106,"CCS(=O)(=O)N[C@@H]1Cn2c(cn(-c3noc4cc(Cl)c(F)c(-c5c(F)cc(F)cc5F)c34)c2=O)C1(F)F [Example 94, N-{(6R)-2-[6-chloro-5-fluoro-4-(2,4,6-trifluorophenyl)-1,2-benzoxazol-3-yl]-7,7-difluoro-3-oxo-2,5,6,7-tetrahydro-3H-pyrrolo[1,2-c]imidazol-6-yl}ethanesulfonamide]"
6,104,"CS(=O)(=O)N[C@@H]1Cn2c(cn(-c3noc4cc(Cl)c(F)c(-c5c(F)cccc5F)c34)c2=O)C1(F)F [Example 95, N-{(6R)-2-[6-chloro-4-(2,6-difluorophenyl)-5-fluoro-1,2-benzoxazol-3-yl]-7,7-difluoro-3-oxo-2,5,6,7-tetrahydro-3H-pyrrolo[1,2-c]imidazol-6-yl}methanesulfonamide]"
7,100,"CS(=O)(=O)N[C@@H]1Cn2c(cn(-c3noc4cccc(-c5c(F)cccc5F)c34)c2=O)C1(F)F [Example 102, N-{(6R)-2-[4-(2,6-Difluorophenyl)-1,2-benzoxazol-3-yl]-7,7-difluoro-3-oxo-2,5,6,7-tetrahydro-3H-pyrrolo[1,2-c]imidazol-6-yl}methanesulfonamide]"
8,106,"Cn1nc(-n2cc3n(c2=O)C[C@@H](NS(C)(=O)=O)C3)c2c(-c3c(F)cccc3F)cccc21 [Example 103, N-{(6S)-2-[4-(2,6-difluorophenyl)-1-methyl-1H-indazol-3-yl]-3-oxo-2,5,6,7-tetrahydro-3H-pyrrolo[1,2-c]imidazol-6-yl}methanesulfonamide]"
9,96,"CCS(=O)(=O)N[C@@H]1CN2C(=O)N(c3noc4ccc(F)c(-c5c(F)cc(F)cc5F)c34)C[C@@H]2C1(F)F [Example 105, N-{(6R,7aR)-7,7-difluoro-2-[5-fluoro-4-(2,4,6-trifluorophenyl)-1,2-benzoxazol-3-yl]-3-oxohexahydro-1H-pyrrolo[1,2-c]imidazol-6-yl}ethanesulfonamide]"
10,103,"CS(=O)(=O)N[C@@H]1Cn2c(cn(-c3noc4cc(Cl)c(F)c(-c5c(F)cc(F)cc5F)c34)c2=O)C1(F)F [Example 106, N-{(6R)-2-[6-chloro-5-fluoro-4-(2,4,6-trifluorophenyl)-1,2-benzoxazol-3-yl]-7,7-difluoro-3-oxo-2,5,6,7-tetrahydro-3H-pyrrolo[1,2-c]imidazol-6-yl}methanesulfonamide]"
11,101,"CS(=O)(=O)N[C@@H]1CN2C(=O)N(c3noc4cc(Cl)c(F)c(-c5c(F)cccc5F)c34)C[C@@H]2C1(F)F [Example 107, N-{(6R,7aR)-2-[6-chloro-4-(2,6-difluorophenyl)-5-fluoro-1,2-benzoxazol-3-yl]-7,7-difluoro-3-oxohexahydro-1H-pyrrolo[1,2-c]imidazol-6-yl}methanesulfonamide]"
12,109,"CS(=O)(=O)N[C@@H]1Cn2c(cn(-c3noc4cc(F)cc(-c5c(F)cc(F)cc5F)c34)c2=O)C1(F)F [Example 108, N-{(6R)-7,7-difluoro-2-[6-fluoro-4-(2,4,6-trifluorophenyl)-1,2-benzoxazol-3-yl]-3-oxo-2,5,6,7-tetrahydro-3H-pyrrolo[1,2-c]imidazol-6-yl}methanesulfonamide]"
13,90,"COCc1cc(-c2c(F)cc(F)cc2F)c2c(-n3cc4n(c3=O)C[C@@H](NS(C)(=O)=O)C4(F)F)noc2c1 [Example 111, N-{(6R)-7,7-difluoro-2-[6-(methoxymethyl)-4-(2,4,6-trifluorophenyl)-1,2-benzoxazol-3-yl]-3-oxo-2,5,6,7-tetrahydro-3H-pyrrolo[1,2-c]imidazol-6-yl}methanesulfonamide]"
14,99,"CCS(=O)(=O)N[C@@H]1Cn2c(cn(-c3noc4nc(C)cc(-c5c(F)cccc5F)c34)c2=O)C1(F)F [Example 112, N-{(6R)-2-[4-(2,6-difluorophenyl)-6-methyl[1,2]oxazolo[5,4-b]pyridin-3-yl]-7,7-difluoro-3-oxo-2,5,6,7-tetrahydro-3H-pyrrolo[1,2-c]imidazol-6-yl}ethanesulfonamide]"
